Experimental data taken from patent US20090185973A1, “METHODS, COMPOSITIONS, UNIT DOSAGE FORMS, AND KITS FOR PHARMACOLOGIC STRESS TESTING WITH REDUCED SIDE EFFECTS” (ADENOBIO N.V., priority 2008, published 2009).
“And” between values parts separate entries of the source, which are not always exact repeats. Identical values can stand only once.

Key:
[1] = tested on: patients with normal coronary reserve; assay: Priming dose effect: time to peak and return to baseline, concurrent administration (Example 4); format: in vivo, human; details: for Time to peak, individual patients / Return to BL, individual patients / Return to BL, Mean / Return to BL, Total / Time to peak, Mean / Time to peak, Total: N = 6; for Time to peak, individual patients / Return to BL, individual patients: listed as ADE; for Time to peak (near maximal hyperemia): adenosine alone vs concurrent combination without priming dose, on average
Text: As a test, a low priming dose of dipyridamole was combined with the concurrent administration of the two drugs to determine whether the time to peak and the occurrence of near maximal hyperaemia could be accelerated, especially when infusion time is reduced by, for example, one minute.

coronary patients [2] = assay: TTDE coronary reserve study, concurrent administration for two minutes (Example 3); format: in vivo, human; details: 31 patients
Text: (§1) Primary efficacy end-points were peak and mean diastolic flow velocities (their measurements reflect coronary blood flow values). The secondary end-point was patient's tolerance to the procedure.

[3] = tested on: patients suffering from ischemic heart disease; assay: Transthoracic doppler echocardiography (TTDE) blood flow velocity in LAD, sequential administration (Example 1); format: in vivo, human; details: mean; for Mean velocity Min / Peak velocity Min: at rest (basal); for Mean velocity Max / Peak velocity Max: under stress
Description: In the combined administration, each of the two agents was administered at a dosage lower than its clinically preferred dosage when used as a single agent for myocardial perfusion imaging. Effects were measured using noninvasive transthoracic doppler echocardiography (TTDE).
Primary efficacy end-points were peak and mean diastolic flow velocities (measured as reflecting coronary blood flow values). The secondary end-point was patient tolerance to the procedure. The protocol was designed as follows.
Forty (40) consecutive patients suffering from ischemic heart disease were enrolled. Each patient served as their own control.
[…] Total doses are between about 4-6% of the lowest single-agent total dose of dipyridamole (i.e., 0.56 mg/kg, infused over a total of 4 minutes).
This dose is half the standard single-agent dosage rate of 140 μg/kg/min.

patients [4] = assay: Control: two consecutive adenosine infusions, TTDE velocities; format: in vivo, human; details: for MV Min, individual patients / PV Min, individual patients / MV Min, mean / PV Min, mean: at rest; for MV Min, individual patients / PV Min, individual patients / PV Max, individual patients / MV Max, individual patients: ADE1 first, ADE2 second adenosine infusion; for MV Min, mean / PV Min, mean / MV Max, mean / PV Max, mean: mean of 5 patients; for PV Max, individual patients / MV Max, individual patients / MV Max, mean / PV Max, mean: under stress
Text: Abbreviations used in the table are defined below:

patients [5] = details: most frequently reported adverse effects with adenosine; cited from earlier work
patients [6] = assay: Priming dose effect with the sequential administration mode (Example 5); format: in vivo, human; details: N = 10
Text: Again there was no difference between the two methods for both peak and mean velocities.

coronary patients [7] = assay: Tolerance, severity of main symptoms (Example 3); format: in vivo, human
Text: as §1

[8] = tested on: patients suffering from ischemic heart disease; assay: Tolerance: occurrence and severity of adverse events (Example 1); format: in vivo, human
Description: Cumulative results on the severity of the three subjective symptoms of the composite (chest pain, dyspnea, flushing) rated from 0 to 30. Cumulative results on the severity of the three subjective symptoms of the composite (chest pain, dyspnea, flushing) rated from 0 to 30.

[9] = ADE vs C concurrent with dipyridamole priming dose (0.1 mg)
[10] = with dipyridamole priming dose (0.1 mg)
[11] = without dipyridamole priming dose
[12] = Delta = peak-BL, concurrent dipyridamole 10 + adenosine 70 μg/kg/min 2 min vs adenosine alone
[13] = concurrent dipyridamole 10 + adenosine 70 μg/kg/min 2 min vs adenosine alone
[14] = before infusion, DIP5: SC = dipyridamole 28 μg/kg + adenosine 70 μg/kg/min, ADE = adenosine 140 μg/kg/min, 30 patients
[15] = DIP4: SC = dipyridamole 35 μg/kg + adenosine 70 μg/kg/min, ADE = adenosine 140 μg/kg/min, 5 patients
[16] = DIP6: SC = dipyridamole 23 μg/kg + adenosine 70 μg/kg/min, ADE = adenosine 140 μg/kg/min, 5 patients
[17] = DIP4: SC = dipyridamole 35 μg/kg IV bolus then adenosine 70 μg/kg/min, ADE = adenosine alone 140 μg/kg/min, 5 patients
[18] = DIP5: SC = dipyridamole 28 μg/kg IV bolus then adenosine 70 μg/kg/min 3 min, ADE = adenosine alone 140 μg/kg/min 3 min, 30 patients
[19] = DIP6: SC = dipyridamole 23 μg/kg IV bolus then adenosine 70 μg/kg/min, ADE = adenosine alone 140 μg/kg/min, 5 patients
[20] = cumulated, all 40 patients: SC = dipyridamole 23, 28 or 35 μg/kg bolus then adenosine 70 μg/kg/min, ADE = adenosine alone 140 μg/kg/min
[21] = adenosine 70 μg/kg/min + dipyridamole 10 μg/kg/min vs adenosine 140 μg/kg/min, 2 min
[22] = DIP4 (n = 5), dipyridamole 35 μg/kg
[23] = DIP5 (n = 30), dipyridamole 28 μg/kg
[24] = DIP6 (n = 5), dipyridamole 23 μg/kg
[25] = TOTAL (n = 40), all dipyridamole doses
[26] = all 40 patients, ADE 140 μg/kg/min, All SC (DIP 4/5/6)

Nc1ncnc2c1ncn2[C@@H]1O[C@H](CO)[C@@H](O)[C@H]1O [adenosine]
Time to peak, individual patients ([1]; ADE 140 μg/kg/min vs C (Dip 10 μg/kg/min + Ade 70 μg/kg/min) concurrent without dipyridamole priming dose): 56 s and 120 s and 50 s and 85 s and 80 s and 75 s
Return to BL, individual patients ([1]; ADE 140 μg/kg/min vs C concurrent without dipyridamole priming dose): 75 seconds and 60 seconds (3×) and 100 seconds and 48 seconds
Return to BL, individual patients [1, 9]: 55 s and 65 s and 54 s and 67 s and 48 s and 60 s
Time to peak, individual patients [1, 9]: 74 s and 55 s and 45 s and 44 s and 30 s and 40 s
Time to peak (near maximal hyperemia) [1]: about 1 minute
Time to peak (near maximal hyperemia) ([1]; listed as Adenoscan): ~1 min
Return to BL, Mean [1, 10]: 58.1 s
Return to BL, Total [1, 10]: 349 s
Time to peak, Mean [1, 10]: 48 s
Time to peak, Total [1, 10]: 288 s
Return to BL, Mean [1, 11]: 67.1 s
Return to BL, Total [1, 11]: 403 s
Time to peak, Mean [1, 11]: 69.3 s
Time to peak, Total [1, 11]: 416 s
Delta mean velocity (coronary patients [2]; [12]): 41.5 ± 15.3
Delta peak velocity (coronary patients [2]; [12]): 54.4 ± 20.5
Peak velocity at baseline (coronary patients [2]; at rest): 33.0 ± 12.9
Mean velocity at baseline (coronary patients [2]; at rest, concurrent dipyridamole 10 μg/kg/min + adenosine 70 μg/kg/min 2 min vs adenosine alone 140 mg/kg/min (so in the source)): 25.2 ± 8.9
Coronary reserve assessment using mean velocity (coronary patients [2]; [13]): 2.79 ± 0.90
Coronary reserve assessment using peak velocity (coronary patients [2]; [13]): 2.82 ± 0.96
Mean velocity Min [3, 14]: 23.1 cm/s
Peak velocity Min [3, 14]: 30.6 cm/sec
Mean velocity Min [3, 15]: 22.2 cm/s
Peak velocity Min [3, 15]: 28 cm/sec
Mean velocity Min [3, 16]: 28.2 cm/s
Peak velocity Min [3, 16]: 37.6 cm/sec
Mean velocity Min ([3]; cumulated, all 40 patients): 23.7 cm/s
Peak velocity Min ([3]; cumulated, all 40 patients): 31.2 cm/sec
Mean velocity Max [3, 17]: 60.4 cm/s
Peak velocity Max [3, 17]: 80 cm/sec
Mean velocity Max [3, 18]: 61.4 cm/s
Peak velocity Max [3, 18]: 82.6 cm/sec
Mean velocity Max [3, 19]: 80.2 cm/s
Peak velocity Max [3, 19]: 107 cm/sec
Mean velocity Max [3, 20]: 63.6 cm/s
Peak velocity Max [3, 20]: 85.3 cm/sec
Max velocity differential MV (ADE1 − ADE2) (patients [4]; 5 patients): 52.6 (ADE2) = 2.4 cm/sec
Max velocity differential PV (ADE1 − ADE2) (patients [4]; 5 patients): 70.8 (ADE2) = 4.8 cm/sec
Difference in velocity measurements between two consecutive infusions (patients [4]; 140 mcg/kg/min, 5 minute interval, p>0.05): no difference was seen
MV Min, individual patients (patients [4]; listed as ADE1): 20 cm/s and 25 cm/s and 17 cm/s and 22 cm/s and 23 cm/s
PV Min, individual patients (patients [4]; listed as ADE1): 28 cm/sec and 34 cm/sec and 23 cm/sec and 30 cm/sec (2×)
MV Min, individual patients (patients [4]; listed as ADE2): 20 cm/s and 23 cm/s and 16 cm/s and 22 cm/s and 21 cm/s
PV Min, individual patients (patients [4]; listed as ADE2): 25 cm/sec and 31 cm/sec and 22 cm/sec and 29 cm/sec and 26 cm/sec
MV Min, mean (patients [4]; listed as ADE1): 21.4 cm/s
PV Min, mean (patients [4]; listed as ADE1): 29 cm/sec
MV Min, mean (patients [4]; listed as ADE2): 20.4 cm/s
PV Min, mean (patients [4]; listed as ADE2): 26.6 cm/sec
PV Max, individual patients (patients [4]; 140 mcg/kg/min, 5 minute interval, listed as ADE1): 70 cm/sec and 68 cm/sec and 65 cm/sec and 102 cm/sec and 73 cm/sec
PV Max, individual patients (patients [4]; 140 mcg/kg/min, 5 minute interval, listed as ADE2): 62 cm/sec and 60 cm/sec and 66 cm/sec and 103 cm/sec and 63 cm/sec
MV Max, individual patients (patients [4]; 140 mcg/kg/min, listed as ADE1): 50 cm/s and 49 cm/s and 48 cm/s and 75 cm/s and 53 cm/s
MV Max, individual patients (patients [4]; 140 mcg/kg/min, listed as ADE2): 48 cm/sec (2×) and 45 cm/sec and 75 cm/sec and 47 cm/sec
MV Max, mean (patients [4]; listed as ADE1): 55 cm/s
PV Max, mean (patients [4]; listed as ADE1): 75.6 cm/sec
MV Max, mean (patients [4]; listed as ADE2): 52.6 cm/s
PV Max, mean (patients [4]; listed as ADE2): 70.8 cm/sec
Frequency of chest pain or chest discomfort (patients [5]): 40%
Frequency of gastrointestinal discomfort (patients [5]): 13%
Frequency of throat or neck or jaw discomfort (patients [5]): 15%
Return to BL, individual patients (patients [6]; ADE 140 μg/kg/min vs C sequential (Dip 40 μg/kg + Ade 70 μg/kg/min), listed as ADE): 30 seconds (2×) and 60 seconds (3×) and 50 seconds and 35 seconds (2×) and 40 seconds and 28 seconds
Time to peak, individual patients (patients [6]; ADE 140 μg/kg/min vs C sequential (Dip 40 μg/kg bolus + Ade 70 μg/kg/min over 2 minutes), listed as ADE): 70 seconds and 50 seconds (2×) and 75 seconds and 60 seconds (2×) and 35 seconds and 38 seconds and 90 seconds and 40 seconds
Return to BL, Mean (patients [6]; sequential administration): 43 s
Return to BL, Total (patients [6]; sequential administration): 428 s
Time to peak, Mean (patients [6]; sequential administration): 57 s
Time to peak, Total (patients [6]; sequential administration): 568 s
Patients who experienced thoracic discomfort (coronary patients [7]; Example 3 series): 4 patients
Severity of chest pain (coronary patients [7]; [21]): 0.68 ± 1.87
Severity of dyspnea (coronary patients [7]; [21]): 3.64 ± 3.67
Severity of flushing (coronary patients [7]; [21]): 4.50 ± 3.15
Severity of dyspnea [8, 22]: 1.4 ± 1.95
Severity of flushing [8, 22]: 2.9 ± 2.88
Severity of chest pain ([8]; DIP4 (n = 5): SC dipyridamole 35 μg/kg + adenosine 70 μg/kg/min vs adenosine alone 140 μg/kg/min): 1.2 ± 2.68
Severity of dyspnea [8, 23]: 2.33 ± 2.59
Severity of flushing [8, 23]: 2.35 ± 2.53
Severity of chest pain ([8]; DIP5 (n = 30): SC dipyridamole 28 μg/kg + adenosine 70 μg/kg/min vs adenosine alone 140 μg/kg/min): 1.12 ± 1.95
Severity of dyspnea [8, 24]: 5 ± 3.08
Severity of flushing [8, 24]: 3.2 ± 3.42
Severity of chest pain ([8]; DIP6 (n = 5): SC dipyridamole 23 μg/kg + adenosine 70 μg/kg/min vs adenosine alone 140 μg/kg/min): 0 ± 0
Severity of chest pain [8, 25]: 0.99 ± 1.93
Severity of dyspnea [8, 25]: 2.55 ± 2.71
Severity of flushing [8, 25]: 2.52 ± 2.63
Chest pain, frequency [8, 26]: 22.5%
Dyspnea, # patients reporting events [8, 26]: 20
Dyspnea, frequency [8, 26]: 50%
Flushing, # patients reporting events [8, 26]: 21
Flushing, frequency [8, 26]: 52.5%
Chest pain, # patients reporting events ([8]; all 40 patients, ADE adenosine alone 140 μg/kg/min, All SC (DIP 4/5/6) dipyridamole 23, 28 or 35 μg/kg + adenosine 70 μg/kg/min): 9
